Legend:
[1] = test system: HEK293 clonal cell line overexpressing APOL1 G1; experiment: APOL1 G1 HEK293 cell rescue assay (Example B3); type: cell-based; settings: Homo sapiens, HEK293, HEK293 clonal line overexpressing APOL1 G1; geometric mean of at least 2 runs; † = single run; ¥ = concentration at 50% rescue estimated (no sigmoidal curve)
How it was run: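 Rescue of cell death caused by APOL1 G1 overexpression was measured in a clonal HEK293 line. Compounds were tested in duplicate on one plate, and EC50s were geometric means across at least two runs on different days. Some values are estimated 50%-rescue concentrations where curve fitting failed.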

[2] = test system: Trypanosoma brucei Lister 427 VSG221 with APOL1 G2 recombinant protein; experiment: APOL1 G2 trypanosome cell rescue assay (Example B5); type: cell-based; settings: Trypanosoma brucei, 20 h, read-out: APOL1 G2 Trypanosome Rescue EC50, Trypanosoma brucei Lister 427 VSG221 with APOL1 G2 recombinant protein, 20 hours, CellTiter-Glo; geometric mean of at least 2 assay runs; † = single assay run
How it was run: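 Luminescent ATP read-out (CellTiter-Glo) of trypanosome viability after 20 h at 37° C. Bloodstream T. brucei Lister 427 VSG221, 250/well in modified HMI-9, were exposed to recombinant mature APOL1 (aa 28-398) from a 2 μg/mL addition, plus compound in 11-point 2-fold series.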

SMILES: CS(=O)(=O)C1CN(c2ncc(OCCN3CCC4(CC3)C(=O)Nc3ccc(Cl)cc34)cn2)C1 [Compound 302, 5-chloro-1′-(2-{[2-(3-methanesulfonylazetidin-1-yl)pyrimidin-5-yl]oxy}ethyl)-1,2-dihydrospiro[indole-3,4′-piperidin]-2-one]
- EC50 [1]: 236 nM
- EC50 [2]: 142 nM

SMILES: CC(C)(O)c1ncc(OCCN2CCC3(CC2)C(=O)Nc2ccc(Cl)cc23)cn1 [Compound 305, 5-chloro-1′-(2-{[2-(2-hydroxypropan-2-yl)pyrimidin-5-yl]oxy}ethyl)-1,2-dihydrospiro[indole-3,4′-piperidin]-2-one]
- EC50 [1]: 172 nM
- EC50 [2]: 80.4 nM

SMILES: CC1(O)CN(c2nccc3cc(OCCN4CCC5(CC4)C(=O)Nc4ccc(Cl)cc45)cnc23)C1 [Compound 306, 5-chloro-1′-(2-{[8-(3-hydroxy-3-methylazetidin-1-yl)-1,7-naphthyridin-3-yl]oxy}ethyl)-1,2-dihydrospiro[indole-3,4′-piperidin]-2-one]
- EC50 [1]: 245 nM
- EC50 [2]: 15 nM

SMILES: O=C1Nc2ccc(Cl)cc2C12CCN(CCOc1cnc3c(N4CC(O)C4)nccc3c1)CC2 [Compound 314, 5-chloro-1′-(2-{[8-(3-hydroxyazetidin-1-yl)-1,7-naphthyridin-3-yl]oxy}ethyl)-1,2-dihydrospiro[indole-3,4′-piperidin]-2-one]
- EC50 [1]: 53.2 nM
- EC50 [2]: 11.5 nM

— patent US12344610B2, “APOL1 inhibitors and methods of use” (Maze Therapeutics, Inc., priority 2022, dated 2025)
